Laboratory results published in PMC5672931 (British Journal of Cancer, 2017).
Marks after values point to notes of the source that are not given here.

Assays:
[1] = pharmacokinetics, plasma concentrations by LC-MS/MS; settings: for half-life / AUC / Cmax / Tmax: human, plasma, intravenous; for AUC / Cmax: mean
advanced malignancies = assay: anti-tumour activity, RECIST v. 1.0; format: in vivo, human; settings: parts 1 and 2; extending to 30 cycles
[2] = test system: Rb phosphorylation and other CDK targets in keratinocytes; assay: CDK targets in skin biopsies; format: in vivo, human
[3] = 2-h infusion, 29.6 mg m^−2, n=5
[4] = 2-h infusion, 41.4 mg m^−2, n=6
[5] = skin biopsies post- vs pre-treatment, 2-h infusions

CCc1cnn2c(NCc3ccc[n+]([O-])c3)cc(N3CCCC[C@H]3CCO)nc12 [dinaciclib, Dinaciclib]
CL, mean ([1]; 2-h infusion, 1.85 mg m^−2, n=1): 13.6 L h^−1 m^−2
CL, mean ([1]; 2-h infusion, 3.7 mg m^−2, n=1): 11.0 L h^−1 m^−2
t1/2, mean ([1]; 2-h infusion, 3.7 mg m^−2, n=1): 2.84 h
CL, mean ([1]; 2-h infusion, 7.4 mg m^−2, n=1): 7.61 L h^−1 m^−2
CL, mean ([1]; 2-h infusion, 14.8 mg m^−2, n=1): 13.8 L h^−1 m^−2
CL, mean [1, 3]: 13.6 ^c L h^−1 m^−2
t1/2, mean [1, 3]: 2.84 ^c h
CL, mean [1, 4]: 26.8 L h^−1 m^−2
t1/2, mean [1, 4]: 2.86 h
CL, mean ([1]; 2-h infusion, 50 mg m^−2, n=15): 16.1 L h^−1 m^−2
CL, mean ([1]; 2-h infusion, 58 mg m^−2, n=4): 18.9 L h^−1 m^−2
Cmax, mean ([1]; 8-h infusion, 7.4 mg m^−2, n=6): 95.5 ng/mL
Cmax, mean ([1]; 8-h infusion, 14.8 mg m^−2, n=3): 95.8 ng/mL
Cmax, mean ([1]; 8-h infusion, 41.4 mg m^−2, n=2): 429 ng/mL
dose dependence of CL ([1]; based on the PK findings): dose-independent
half-life [1]: 1.4 to 3.3 h
AUC ([1]; 1.85 mg m^−2, AUC(l), 2-h infusion, 1.85 mg m^−2, n=1): 136 ng·h/mL
AUC ([1]; 1.85 mg m^−2, AUC(tf), 2-h infusion, 1.85 mg m^−2, n=1): 135 ng·h/mL
Cmax ([1]; 1.85 mg m^−2, Cmax, 2-h infusion, 1.85 mg m^−2, n=1): 62.5 ng/mL
AUC ([1]; 7.4 mg m^−2, AUC(l), 2-h infusion, 7.4 mg m^−2, n=1): 975 ng·h/mL
AUC ([1]; 7.4 mg m^−2, AUC(tf), 2-h infusion, 7.4 mg m^−2, n=1): 974 ng·h/mL
AUC ([1]; 7.4 mg m^−2, AUC(tf), 8-h infusion, 7.4 mg m^−2, n=6): 687 ng·h/mL
AUC ([1]; 7.4 mg m^−2, AUC(tf), 24-h infusion, 7.4 mg m^−2, n=4): 877 ng·h/mL
Cmax ([1]; 7.4 mg m^−2, Cmax, 2-h infusion, 7.4 mg m^−2, n=1): 353 ng/mL
Cmax ([1]; 7.4 mg m^−2, Cmax, 24-h infusion, 7.4 mg m^−2, n=4): 41.4 ng/mL
Tmax ([1]; 7.4 mg m^−2, Tmax, median, 8-h infusion, 7.4 mg m^−2, n=4): 4 h
Tmax ([1]; 7.4 mg m^−2, Tmax, median, 24-h infusion, 7.4 mg m^−2, n=1): 24 h
AUC ([1]; 10.4 mg m^−2, AUC(tf), 24-h infusion, 10.4 mg m^−2, n=3): 982 ng·h/mL
Cmax ([1]; 10.4 mg m^−2, Cmax, 24-h infusion, 10.4 mg m^−2, n=3): 51.4 ng/mL
Tmax ([1]; 10.4 mg m^−2, Tmax, median, 24-h infusion, 10.4 mg m^−2, n=2): 15 h
AUC ([1]; 14.6 mg m^−2, AUC(tf), 24-h infusion, 14.6 mg m^−2, n=3): 2590 ng·h/mL
Cmax ([1]; 14.6 mg m^−2, Cmax, 24-h infusion, 14.6 mg m^−2, n=3): 161 ng/mL
Tmax ([1]; 14.6 mg m^−2, Tmax, median, 24-h infusion, 14.6 mg m^−2, n=2): 15 h
half-life ([1]; 14.8 mg m^−2): 2.78 h
AUC ([1]; 14.8 mg m^−2, AUC(l), 2-h infusion, 14.8 mg m^−2, n=1): 1060 ng·h/mL
AUC ([1]; 14.8 mg m^−2, AUC(tf), 2-h infusion, 14.8 mg m^−2, n=1): 1060 ng·h/mL
AUC ([1]; 14.8 mg m^−2, AUC(tf), 8-h infusion, 14.8 mg m^−2, n=3): 702 ng·h/mL
Cmax ([1]; 14.8 mg m^−2, Cmax, 2-h infusion, 14.8 mg m^−2, n=1): 396 ng/mL
Tmax ([1]; 14.8 mg m^−2, Tmax, median, 8-h infusion, 14.8 mg m^−2, n=3): 4 h
AUC ([1]; 29.6 mg m^−2, AUC(l), 2-h infusion, 29.6 mg m^−2, n=5): 2440 ng·h/mL
AUC ([1]; 29.6 mg m^−2, AUC(tf), 2-h infusion, 29.6 mg m^−2, n=5): 2060 ng·h/mL
AUC ([1]; 29.6 mg m^−2, AUC(tf), 8-h infusion, 29.6 mg m^−2, n=3): 2300 ng·h/mL
Cmax ([1]; 29.6 mg m^−2, Cmax, 2-h infusion, 29.6 mg m^−2, n=6): 890 ng/mL
Cmax ([1]; 29.6 mg m^−2, Cmax, 8-h infusion, 29.6 mg m^−2, n=3): 333 ng/mL
Tmax ([1]; 29.6 mg m^−2, Tmax, median, 8-h infusion, 29.6 mg m^−2, n=3): 4 h
AUC ([1]; 41.4 mg m^−2, AUC(l), 2-h infusion, 41.4 mg m^−2, n=6): 2880 ng·h/mL
AUC ([1]; 41.4 mg m^−2, AUC(tf), 2-h infusion, 41.4 mg m^−2, n=6): 2860 ng·h/mL
AUC ([1]; 41.4 mg m^−2, AUC(tf), 8-h infusion, 41.4 mg m^−2, n=2): 3300 ng·h/mL
Cmax ([1]; 41.4 mg m^−2, Cmax, 2-h infusion, 41.4 mg m^−2, n=6): 1300 ng/mL
Tmax ([1]; 41.4 mg m^−2, Tmax, median, 8-h infusion, 41.4 mg m^−2, n=1): 4 h
AUC ([1]; 50 mg m^−2, AUC(l), 2-h infusion, 50 mg m^−2, n=15): 3940 ng·h/mL
AUC ([1]; 50 mg m^−2, AUC(tf), 2-h infusion, 50 mg m^−2, n=15): 3910 ng·h/mL
AUC ([1]; 50 mg m^−2, AUC(tf), 8-h infusion, 50 mg m^−2, n=2): 3670 ng·h/mL
Cmax ([1]; 50 mg m^−2, Cmax, 2-h infusion, 50 mg m^−2, n=15): 1810 ng/mL
Cmax ([1]; 50 mg m^−2, Cmax, 8-h infusion, 50 mg m^−2, n=2): 475 ng/mL
Tmax ([1]; 50 mg m^−2, Tmax, median, 8-h infusion, 50 mg m^−2, n=2): 8 h
AUC ([1]; 58 mg m^−2, AUC(l), 2-h infusion, 58 mg m^−2, n=4): 3370 ng·h/mL
AUC ([1]; 58 mg m^−2, AUC(tf), 2-h infusion, 58 mg m^−2, n=4): 3360 ng·h/mL
Cmax ([1]; 58 mg m^−2, Cmax, 2-h infusion, 58 mg m^−2, n=4): 1460 ng/mL
Tmax ([1]; Tmax, after the initiation of the 2-h infusion, 35 patients in Part 1, across doses): 1 to 2 h
Tmax ([1]; Tmax, after the start of the 8-h infusion, 16 patients): 4 to 8 h
Tmax ([1]; Tmax, after the start of the 24-h infusion): 6 to 24 h
patients with stable disease for at least six treatment cycles (advanced malignancies): eight
cyclin D1 levels [2, 5]: decreased
p27^Kip1 levels [2, 5]: relatively stable
p53 levels [2, 5]: increased
Ki-67 staining ([2]; skin biopsies post-treatment): no substantial reduction
degree of changes of Rb/CDK markers ([2]; skin biopsies, 8-h infusions): overall similar to that observed after 2-h infusions
